# In patent US20230201118A1, “PRODRUG COPOLYMERS AND POLYMERIC MICELLES THEREOF FOR THE DELIVERY OF SHORT-CHAIN FATTY ACIDS, THE PROMOTION OF GUT HEALTH, AND THE TREATMENT OF IMMUNE AND/OR INFLAMMATORY CONDITIONS AND FOOD ALLERGY” (The University of Chicago, priority 2021, published 2023):
# Tested on: APCs in the draining LNs
# Assay: Subcutaneous LPS stimulation: activation markers CD40 and CD86 on APCs in draining LNs
# Assay type: in vivo, mouse
# Conditions: s.c. treatment, LPS challenge on Day 6
# Procedure: In order to assess the ability of lymph node targeted Neg-ButM in suppressing the activation of APCs, the investors tested on a mouse model of subcutaneous lipopolysaccharide (LPS) stimulation and evaluated on the activation marker including CD40 and CD86 on the major APCs in the draining LNs. Mice were injected with either PBS, sodium butyrate (NaBut), NtL-ButM, or Neg-ButM subcutaneously at the abdomen site. On Day 6, Mice were challenged with LPS on the same injection site, and sacrificed the next day for the cellular analysis.
smiles,measurement,value
CCCC(=O)[O-].[Na+] [sodium butyrate],suppression of APC activation,"neither the NtL-ButM, nor sodium butyrate showed any significant suppression on the APC activations"
